Several values for one entry are separate records, joined by “and”; a condition that tells them apart may be missing. Identical values can stand only once.
Legend:
[1] = biological target: T1, AfUGM (Aspergillus fumigatus, UniProt Q4W1X2); test: Stopped-flow kinetics of flavin reduction of AfUGM by NAD; assay type: biochemical; settings: for kred / Kd / kred/Kd: AfUGM wild type; for kred / Kd: anaerobic, 15 °C; for kred: pH 7.0, flavin absorbance 452 nm; for Kd: pH 7.0, from fit of kobs; for kred/Kd: catalytic efficiency
[2] = biological target: AfUGM R91A (Aspergillus fumigatus, UniProt Q4W1X2, R91A); assay type: biochemical; settings: R91A mutant
[3] = biological target: AfUGM S93A (Aspergillus fumigatus, UniProt Q4W1X2, S93A); assay type: biochemical; settings: S93A mutant
[4] = biological target: Mycobacterium tuberculosis UGM (Mycobacterium tuberculosis, UniProt P9WIQ1); test: Reduction of Mycobacterium tuberculosis UGM by NADPH; assay type: biochemical; settings: estimated (Figure S5)
[5] = biological target: T1, AfUGM; test: Kinetic isotope effect on flavin reduction of AfUGM with deuterated coenzymes; assay type: biochemical
[6] = biological target: TcUGM; settings: cited from earlier work
[7] = pro-R H atom substituted with D

| SMILES | kred [1] | Kd [1] | kred/Kd [1] | catalytic efficiency of AfUGM relative to TcUGM ([1]; kred/Kd AfUGM vs TcUGM) | Kd [2] | Variational Effect (kred/Kd of variant)/(kred/Kd of AfUGM) [2] | kred/Kd [2] | kred ([2]; anaerobic, 15 °C, pH 7.0) | Kd [3] | Variational Effect (kred/Kd of variant)/(kred/Kd of AfUGM) [3] | kred/Kd [3] | kred ([3]; anaerobic, 15 °C, pH 7.0) | kred [4] | KIE on flavin reduction [5, 7] | Kd [6] | kred [6] | kred/Kd [6] | KIE on flavin reduction ([5]; pro-S deuterated coenzyme used to reduce AfUGM) |
| --- | --- | --- | --- | --- | --- | --- | --- | --- | --- | --- | --- | --- | --- | --- | --- | --- | --- | --- |
| NC(=O)C1=CN([C@@H]2O[C@H](COP(=O)(O)OP(=O)(O)OC[C@H]3O[C@@H](n4cnc5c(N)ncnc54)[C@H](OP(=O)(O)O)[C@@H]3O)[C@@H](O)[C@H]2O)C=CC1 [NADPH] | 3 s⁻¹ and 2.98 ± 0.078 s⁻¹ | 25 ± 2 µM | 120000 M⁻¹ s⁻¹ and 120000 ± 10000 M⁻¹ s⁻¹ | 20 times | 330 ± 20 µM | 0.008 ± 0.001 | 980 ± 70 M⁻¹ s⁻¹ | 0.313 ± 0.008 s⁻¹ | 21 ± 8 µM | 0.07 ± 0.03 | 8000 ± 3000 M⁻¹ s⁻¹ | 0.17 ± 0.01 s⁻¹ | 0.00002 s⁻¹ | 3.0 ± 0.1 | 98 µM | 0.6 s⁻¹ | 6000 M⁻¹ s⁻¹ | – |
| [2H]C1C=CN(C2OC(COP(=O)(O)OP(=O)(O)OCC3OC(n4cnc5c(N)ncnc54)C(OP(=O)(O)O)C3O)C(O)C2O)C=C1C(N)=O (stereo not shown) [pro-S NADPD] | – | – | – | – | – | – | – | – | – | – | – | – | – | – | – | – | – | 0.93 ± 0.03 |
| NC(=O)C1=CN([C@@H]2O[C@H](COP(=O)(O)OP(=O)(O)OC[C@H]3O[C@@H](n4cnc5c(N)ncnc54)[C@H](O)[C@@H]3O)[C@@H](O)[C@H]2O)C=CC1 [NADH] | 0.2 s⁻¹ and 0.172 ± 0.003 s⁻¹ | 260 ± 20 µM | 670 M⁻¹ s⁻¹ and 670 ± 50 M⁻¹ s⁻¹ | – | – | – | – | – | – | – | – | – | – | 6.0 ± 0.7 | – | – | – | – |

Source: paper PMC3493617 (Journal of the American Chemical Society, 2012)
